The record followed here is PMC12630350, “Direct coupling of lactate oxidation with butyryl-CoA formation via a canonical electron transfer flavoprotein in Fusobacterium nucleatum” (The Journal of Biological Chemistry, 2025).

This experiment concerns the target T1, ETFFN (EtfAB, FN1533-FN1534) (Fusobacterium polymorphum, UniProt A0A1Z3CIN2+A0A1Z3CJK5).
T1 construct: gene CBG50_09400; heterodimer, His6 tag on N-terminus of EtfB; EtfA 34,980 Da, tagged EtfB 30,560 Da; E. coli BL21(DE3)
T1 sequence (A0A1Z3CIN2 1-322): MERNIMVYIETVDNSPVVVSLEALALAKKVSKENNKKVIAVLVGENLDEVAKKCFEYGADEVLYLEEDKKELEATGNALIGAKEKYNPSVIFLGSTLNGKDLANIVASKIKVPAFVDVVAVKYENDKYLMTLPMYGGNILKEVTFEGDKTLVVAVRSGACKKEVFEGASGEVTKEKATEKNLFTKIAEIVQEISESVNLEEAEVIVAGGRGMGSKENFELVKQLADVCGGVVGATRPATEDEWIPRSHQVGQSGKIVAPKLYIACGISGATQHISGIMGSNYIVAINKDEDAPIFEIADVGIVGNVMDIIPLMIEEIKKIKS
T1 sequence (A0A1Z3CJK5 1-259): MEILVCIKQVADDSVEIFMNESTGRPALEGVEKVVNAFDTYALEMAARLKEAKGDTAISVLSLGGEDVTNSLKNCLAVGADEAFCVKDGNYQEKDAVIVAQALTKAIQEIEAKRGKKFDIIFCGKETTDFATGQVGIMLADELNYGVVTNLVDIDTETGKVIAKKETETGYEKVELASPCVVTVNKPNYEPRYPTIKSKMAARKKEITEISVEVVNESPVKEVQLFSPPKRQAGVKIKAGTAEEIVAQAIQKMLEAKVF
Briefly: UV-visible spectrum; FAD released by heat denaturation. Type of experiment: binding. As to conditions: copurified; FAD in alpha-subunit; FAD to protein ratio determined.

As to `Cc1cc2nc3c(=O)[nH]c(=O)nc-3n(C[C@H](O)[C@H](O)[C@H](O)COP(=O)(O)OP(=O)(O)OC[C@H]3O[C@@H](n4cnc5c(N)ncnc54)[C@H](O)[C@@H]3O)c2cc1C` [FAD], the “UV-visible spectrum; FAD released by heat denaturation” value is on record as “diagnostic of the FAD cofactor”.
